Assay results from patent US11746116B2, “Antibiotic resistance breakers” (KING'S COLLEGE LONDON, priority 2017, dated 2023).
Converted amounts (≈) assume the structure as drawn. Read-outs that look alike come from different tables or passages of the source.

Columns and labels:
Test in all cases: MIC, microdilution broth method
[1] = test system: EMRSA16; format: cell-based, Staphylococcus aureus
[2] = test system: VRE12201; format: cell-based, Enterococcus faecalis; conditions: VRE12201; in µg/mL
[3] = test system: VRE12204; format: cell-based, Enterococcus faecium; conditions: VRE12204; in µg/mL
[4] = test system: EMRSA15; format: cell-based, Staphylococcus aureus
[5] = test system: VSE775; format: cell-based, Enterococcus faecalis; conditions: VSE775; in µg/mL
[6] = test system: MSSA9144; format: cell-based, Staphylococcus aureus; conditions: MSSA9144; in µg/mL
[7] = test system: Ab17978; format: cell-based; conditions: Ab17978, in µg/mL
[8] = test system: M6; format: cell-based; conditions: M6, in µg/mL
[9] = test system: PA01; format: cell-based, Pseudomonas aeruginosa; conditions: PA01, in µg/mL

Compound	MIC ([1]; EMRSA16, in µg/mL)	MIC [2]	MIC [3]	MIC ([4]; EMRSA15, in µg/mL)	MIC [5]	MIC [6]	MIC ([7]; Normal (no PMBN))	MIC ([8]; Normal (no PMBN))	other results
O=C(O)c1cn(C2CC2)c2cc(N3CCN(Cc4ccc(I)cc4)CC3)c(F)cc2c1=O	4	1-2	4	4	2	0.12-0.25	–	–	–
CCn1cc(C(=O)O)c(=O)c2cc(F)c(N3CCN(Cc4ccc(-n5cncn5)cc4)CC3)cc21 [Compound 3.32, 7-(4-(4-(1H-1,2,4-triazol-1-yl)benzyl)piperazin-1-yl)-1-ethyl-6-fluoro-4-oxo-1,4-dihydroquinoline-3-carboxylic acid]	–	8	16	–	8	1	–	–	–
CCn1cc(C(=O)O)c(=O)c2cc(F)c(N3CCN(Cc4ccc(-c5noc(C)n5)cc4)CC3)cc21 [Compound 3.36, 1-ethyl-6-fluoro-7-(4-(4-(5-methyl-1,2,4-oxadiazol-3-yl)-benzyl)piperazin-1-yl)-4-oxo-1,4-dihydroquinone-3-carboxylic acid]	32	4	8	16-32	8	0.25	–	–	–
C[C@H]1COc2c(N3CC[C@@H](N)C3)c(F)cc3c(=O)c(C(=O)O)cn1c23 [KSN-L44]	–	–	–	–	–	–	–	–	MIC, EMRSA16 ([1]; EMRSA16 (Table 16, role of the terminal pyrimidine ring), in µg/mL): 32; MIC, EMRSA15 ([4]; EMRSA15 (Table 16, role of the terminal pyrimidine ring), in µg/mL): 32
CCn1cc(C(=O)O)c(=O)c2cc(F)c(N3CCN(Cc4cccc5ccccc45)CC3)nc21 [ML-77-025]	2-4	8	4	2-8	16	0.5-1	–	–	fold reduction (potentiation) in MIC compared to the parent fluoroquinolone ([1]; EMRSA-16): 64-128 fold; fold reduction (potentiation) in MIC compared to the parent fluoroquinolone ([4]; EMRSA-15): 64-128 fold
O=C(O)c1cn(C2CC2)c2cc(N3CCN(Cc4cc(=O)[nH]c5ccccc45)CC3)c(F)cc2c1=O [ML-77-058]	–	0.5-4	–	–	–	0.25-1	–	4-32	–
CCn1cc(C(=O)O)c(=O)c2cc(F)c(N3CCN(Cc4cccc5c4CCCC5)CC3)cc21 [ML-77-077]	2	2	1-2	2	2	1	32-128	64	–
O=C(O)c1cn(C2CC2)c2cc(N3CCN(Cc4cccc5ccsc45)CC3)c(F)cc2c1=O [ML-77-078]	2	0.5	1-2	2	2-4	<0.12	4-8	32	–
CCn1cc(C(=O)O)c(=O)c2cc(F)c(N3CCN(Cc4cccc5ccsc45)CC3)cc21 [ML-77-079]	2	0.5-2	1-2	2	4	0.25	–	32	–
O=C(O)c1cn(C2CC2)c2cc(N3CCN(Cc4ccc(S(=O)(=O)NCCc5c[nH]c6ccccc56)cc4)CC3)c(F)cc2c1=O [ML-77-138]	–	–	–	–	–	0.25-0.5	64	–	MIC ([7]; +PMBN): 1; MIC ([9]; +PMBN): ≤0.12; MIC ([8]; +PMBN): 1
C[C@H]1COc2c(N3CCN(Cc4cccc5ccccc45)CC3)c(F)cc3c(=O)c(C(=O)O)cn1c23 [ML-77-140, (S)-9-fluoro-3-methyl-10-(4-(naphthalen-1-ylmethyl)piperazin-1-yl)-7-oxo-2,3-dihydro-7H-[1,4]oxazino[2,3,4-ij]quinoline-6-carboxylic acid]	2-4	0.5-1	1-2	4	1-2	0.125-1	–	–	–
O=C(O)c1cn(C2CC2)c2cc(N3CCN(Cc4ccc(-c5csnn5)cc4)CC3)c(F)cc2c1=O [ML-77-157]	8	0.5	4-8	4	0.5	<0.12	0.25-0.5	1	–
CCn1cc(C(=O)O)c(=O)c2cc(F)c(N3CCN(c4cccc5ccccc45)CC3)cc21 [ML-77-169, 1-ethyl-6-fluoro-7-(4-(naphthalen-1-yl)piperazin-1-yl)-4-oxo-1,4-dihydroquinoline-3-carboxylic acid]	1	2	1	1-2	2	2	–	–	–
O=C(O)c1cn(C2CC2)c2cc(N3CCN(CCc4cccc5ccccc45)CC3)c(F)cc2c1=O [ML-77-171]	4	2	4	2-4	4	0.5	–	–	–
C[C@H]1COc2c(N3CCCN(c4ncc(F)cn4)CC3)c(F)cc3c(=O)c(C(=O)O)cn1c23 [ML-83-034]	–	–	–	–	–	–	–	–	MIC ([1]; Staphylococcus aureus (EMRSA16), Table 12, read-out: MIC): 16 µg/mL (≈ 35 µM); MIC ([4]; Staphylococcus aureus, Staphylococcus aureus (EMRSA15), Table 12, read-out: MIC): 8 µg/mL (≈ 17.5 µM)

Further lines, with some results ahead:

MIC ([1]; EMRSA16, in µg/mL)	MIC [2]	MIC [3]	MIC ([4]; EMRSA15, in µg/mL)	MIC [5]	MIC [6]	Compound	MIC ([7]; Normal (no PMBN))	MIC ([8]; Normal (no PMBN))	other results
16	0.5	8	16-32	1	0.12	O=C(O)c1cn(C2CC2)c2cc(N3CCN(Cc4ccc(-n5cncn5)cc4)CC3)c(F)cc2c1=O [Compound 2.36, 7-(4-(4-(1H-1,2,4-triazol-1-yl)benzyl)piperazin-1-yl)-1-cyclopropyl-6-fluoro-4-oxo-1,4-dihydroquinoline-3-carboxylic acid]	–	–	–
32	4-8	16	16-32	8	0.5	CCn1cc(C(=O)O)c(=O)c2cc(F)c(N3CCN(Cc4ccc(-n5cccn5)cc4)CC3)cc21 [Compound 3.30, 7-(4-(4-(1H-pyrazol-1-yl)benzyl)piperazin-1-yl)-1-ethyl-6-fluoro oxo-1-4-dihydroquinoline-3-carboxylic acid]	–	–	–
–	8	4-8	–	16	2	CCn1cc(C(=O)O)c(=O)c2cc(F)c(N3CCNCC3)nc21 [Enoxacin, enoxacin, reference compound]	–	–	–
2	0.5	2	2	0.5-2	0.12	O=C(O)c1cn(C2CC2)c2cc(N3CCN(Cc4ccc5ccccc5c4)CC3)c(F)cc2c1=O [ML-77-036]	8	4-32	–
8	8	–	4	8	4	O=C(O)c1cn(C2CC2)c2cc(N3CCN(Cc4ccc(F)c5ccccc45)CC3)c(F)cc2c1=O [ML-77-048]	8	64	–
–	2	–	64	4	0.5	O=C(O)c1cn(C2CC2)c2cc(N3CCN(Cc4cccc5cccnc45)CC3)c(F)cc2c1=O [ML-77-052]	0.25	4	–
1-2	1-2	1-2	1	2	0.25	O=C(O)c1cn(C2CC2)c2cc(N3CCN(Cc4cccc5c4CCCC5)CC3)c(F)cc2c1=O [ML-77-076]	–	8	–
4	4	2	2	2	2	CCn1cc(C(=O)O)c(=O)c2cc(F)c(N3CCN(Cc4ccc(-c5ccccc5)cc4)CC3)cc21 [ML-77-134, 7-(4-([1,1′-biphenyl]-4-ylmethyl)piperazin-1-yl)-1-ethyl-6-fluoro-4-oxo-1,4-dihydroquinoline-3-carboxylic acid]	–	64	–
4-8	8	4-8	4-8	8	0.5-1	CCn1cc(C(=O)O)c(=O)c2cc(F)c(N3CCN(Cc4cc(C)cc(C)c4)CC3)cc21 [ML-77-150, 7-(4-(3,5-dimethylbenzyl)piperazin-1-yl)-1-ethyl-6-fluoro-4-oxo-1,4-dihydroquinoline-3-carboxylic acid]	16	32-64	–
32	1	–	–	1-2	≤0.12	Cc1nc(-c2ccc(CN3CCN(c4cc5c(cc4F)c(=O)c(C(=O)O)cn5C4CC4)CC3)cc2)no1 [ML-77-163]	0.5-1	2	MIC ([9]; Normal (no PMBN)): 32
1	0.25-0.5	1	1-2	2	1	O=C(O)c1cn(C2CC2)c2cc(N3CCN(c4cccc5ccccc45)CC3)c(F)cc2c1=O [ML-77-168]	–	–	–
4	4-8	4	4	4-8	2-4	CCn1cc(C(=O)O)c(=O)c2cc(F)c(N3CCN(CCc4cccc5ccccc45)CC3)cc21 [ML-77-173, 1-ethyl-6-fluoro-7-(4-(2-(naphthalen-1-yl)ethyl)piperazin-1-yl)-4-oxo-1,4-dihydroquinoline-3-carboxylic acid]	–	–	–
